In ChEMBL document CHEMBL1143196, “Discovery of kinase inhibitors by high-throughput docking and scoring based on a transferable linear interaction energy model” (J Med Chem, 2008):

How the values were obtained:
[1] = biological target: Epidermal growth factor receptor (Homo sapiens, UniProt P00533)
cells = details: T-cell
[2] = Inhibition of CDK2/Cyclin A

Chain of Epidermal growth factor receptor (P00533 whole entry): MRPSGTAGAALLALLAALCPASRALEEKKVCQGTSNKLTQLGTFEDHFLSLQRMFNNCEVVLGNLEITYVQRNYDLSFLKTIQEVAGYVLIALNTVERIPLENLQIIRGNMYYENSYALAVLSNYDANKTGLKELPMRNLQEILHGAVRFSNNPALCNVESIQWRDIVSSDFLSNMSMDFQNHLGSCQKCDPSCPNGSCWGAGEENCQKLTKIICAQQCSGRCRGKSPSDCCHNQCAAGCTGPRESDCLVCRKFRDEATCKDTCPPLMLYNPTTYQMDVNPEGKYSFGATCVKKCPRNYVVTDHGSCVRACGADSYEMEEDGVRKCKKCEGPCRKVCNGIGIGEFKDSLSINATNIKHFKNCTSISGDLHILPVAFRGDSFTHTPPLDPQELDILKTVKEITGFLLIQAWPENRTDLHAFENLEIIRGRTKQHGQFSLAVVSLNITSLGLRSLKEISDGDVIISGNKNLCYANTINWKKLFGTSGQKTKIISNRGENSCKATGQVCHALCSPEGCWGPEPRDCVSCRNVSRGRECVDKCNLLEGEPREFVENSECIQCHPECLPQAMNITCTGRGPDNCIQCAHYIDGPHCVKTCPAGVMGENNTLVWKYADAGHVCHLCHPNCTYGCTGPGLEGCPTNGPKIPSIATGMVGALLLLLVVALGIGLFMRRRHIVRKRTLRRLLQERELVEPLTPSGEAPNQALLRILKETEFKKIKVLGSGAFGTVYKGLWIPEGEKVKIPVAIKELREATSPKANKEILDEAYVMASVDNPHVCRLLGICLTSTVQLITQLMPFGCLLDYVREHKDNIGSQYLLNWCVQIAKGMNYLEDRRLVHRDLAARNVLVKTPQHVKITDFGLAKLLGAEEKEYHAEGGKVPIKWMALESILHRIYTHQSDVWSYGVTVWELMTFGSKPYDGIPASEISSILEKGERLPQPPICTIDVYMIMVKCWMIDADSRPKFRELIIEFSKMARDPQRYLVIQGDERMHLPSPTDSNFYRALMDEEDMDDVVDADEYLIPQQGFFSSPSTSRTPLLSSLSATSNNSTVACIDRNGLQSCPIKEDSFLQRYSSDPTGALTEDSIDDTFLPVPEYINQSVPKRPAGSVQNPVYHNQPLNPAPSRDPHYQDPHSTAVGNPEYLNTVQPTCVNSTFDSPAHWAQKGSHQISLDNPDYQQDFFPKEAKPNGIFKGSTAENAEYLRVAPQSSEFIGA

Row | SMILES | IC50 [1] | other results
1 | Fc1ccc2ncnc(Nc3cccc(Br)c3)c2n1 | 44.7 nM | 
2 | Cc1cccc(Cl)c1Nc1nc2ccc(NCCN(C)C)cc2n2cncc12 |  | IC50 (cells): 880 nM
3 | Oc1cc2ncnc(Nc3cccc(Br)c3)c2cc1O | 0.174 nM | 
4 | CC/C=C/CCOc1nc(N)nc2[nH]cnc12 |  | IC50 [2]: 69000 nM
5 | CCCOc1cc2ncnc(Nc3cccc(Br)c3)c2cc1OCCC | 0.174 nM | 
6 | Cc1cccc(Cl)c1Nc1nc2ccc(N)cc2n2cncc12 |  | IC50 (cells): 1600 nM
7 | CNc1ccc2ncnc(Nc3cccc(Br)c3)c2c1 | 4.07 nM | 
8 | Brc1cccc(Nc2ncnc3ccncc23)c1NCCN1CCOCC1 | 3.24 nM | 
9 | Cc1cccc(Nc2ncnc3cnc(N(C)C)nc23)c1 | 4.07 nM | 
10 | COc1cc2ncnc(Nc3ccc(Br)cc3)c2cc1OC | 0.0724 nM | 
11 | COc1cc2c(cc1NCCN1CCOCC1)nc(Nc1c(C)cccc1Cl)c1cncn12 |  | IC50 (cells): 280 nM
12 | Clc1ncc2ncnc(Nc3cccc(Br)c3)c2n1 | 83.2 nM | 
13 | CN(CC(O)CO)c1c(Br)cccc1Nc1ncnc2ccncc12 (stereo not given) | 3.24 nM | 
14 | Nc1cc(Br)ccc1Nc1ncnc2ccncc12 | 25.7 nM | 
15 | Nc1cc2ncnc(Nc3ccccc3N)c2cn1 | 5370 nM | 
16 | CN(C)c1ccc2ncnc(Nc3cccc(Br)c3)c2c1 | 85.1 nM | 
17 | COc1ccc2c(c1)nc(Nc1c(C)cccc1Cl)c1cncn12 |  | IC50 (cells): 2600 nM
18 | Cc1cccc(Cl)c1Nc1nc2cc(N3CCOCC3)ccc2n2cncc12 |  | IC50 (cells): 1000 nM
19 | Nc1nc(OCc2ccccc2)c2nc[nH]c2n1 [6-O-BENZYLGUANINE] |  | IC50 [2]: 35000 nM
20 | CN(C)c1cccc(Nc2ncnc3ccncc23)c1N | 1820 nM | 
21 | Cc1cccc(Cl)c1Nc1nc2cc3c(cc2n2cncc12)OCO3 |  | IC50 (cells): 2000 nM
22 | Cc1cccc(Cl)c1Nc1nc2ccc(N(C)C)cc2n2cncc12 |  | IC50 (cells): 2000 nM
23 | FC(F)(F)c1cccc(Nc2ncnc3ccccc23)c1 | 589 nM | 
24 | Nc1c(O)cccc1Nc1ncnc2ccncc12 | 70.8 nM | 
25 | CCCCCOc1nc(N)nc2[nH]cnc12 |  | IC50 [2]: 49000 nM
26 | COc1cccc2nc(Nc3c(C)cccc3Cl)c3cncn3c12 |  | IC50 (cells): 2300 nM

Row | SMILES | IC50 [1] | other results
27 | Nc1nc(OCCc2ccccc2)c2nc[nH]c2n1 |  | IC50 [2]: 65000 nM
28 | Brc1cccc(Nc2ncnc3ccncc23)c1NCCCn1ccnc1 | 0.513 nM | 
29 | O=C(O)CNc1c(Br)cccc1Nc1ncnc2ccncc12 | 1.51 nM | 
30 | COc1cc2nc(Nc3c(C)cccc3Cl)c3cncn3c2cc1N1CC(C)NC(C)C1 (stereo not given) |  | IC50 (cells): 760 nM
31 | CN(C)c1cc2ncnc(Nc3cccc(Br)c3)c2cc1N | 162 nM | 
32 | CN(C)CCNc1c(Br)cccc1Nc1ncnc2ccncc12 | 45.7 nM | 
33 | CCCOc1nc(N)nc2[nH]cnc12 |  | IC50 [2]: 67000 nM
34 | Fc1c(Br)cccc1Nc1ncnc2ccncc12 | 13.2 nM | 
35 | CCCCCCCOc1nc(N)nc2[nH]cnc12 |  | IC50 [2]: > 100000 nM
36 | COc1ccc2ncnc(Nc3ccccc3)c2c1 [listing 1 of 2 here] | 56.2 nM | 
37 | CN(C)CCCCNc1c(Br)cccc1Nc1ncnc2ccncc12 | 7.41 nM | 
38 | Cc1cccc(Cl)c1Nc1nc2ccc(N3CCNCC3)cc2n2cncc12 |  | IC50 (cells): 380 nM
39 | Nc1c(Cl)cccc1Nc1ncnc2ccncc12 | 120 nM | 
40 | C=CCOc1nc(N)nc2nc[nH]c12 |  | IC50 [2]: 78000 nM
41 | COc1ccc2ncnc(Nc3cccc(Br)c3)c2c1 | 355 nM | 
42 | Cc1cccc(Nc2ncnc3ccncc23)c1NCCCn1ccnc1 | 3.55 nM | 
43 | Cc1cccc(Cl)c1Nc1nc2cc(NCCCN(C)C)ccc2n2cncc12 |  | IC50 (cells): 480 nM
44 | CN(CCO)c1c(Br)cccc1Nc1ncnc2ccncc12 | 2.63 nM | 
45 | Cc1cccc(Cl)c1Nc1nc2cc(O)c(O)cc2n2cncc12 |  | IC50 (cells): > 9000 nM
46 | COc1ccc2nc(Nc3c(C)cccc3Cl)c3cncn3c2c1 |  | IC50 (cells): 1400 nM
47 | O=S(=O)(O)CCNc1c(Br)cccc1Nc1ncnc2ccncc12 | 1.41 nM | 
48 | NNc1c(Br)cccc1Nc1ncnc2ccncc12 | 7.24 nM | 
49 | Cc1cccc(Nc2ncnc3ccncc23)c1NCCCN1CCN(C)CC1 | 5.62 nM | 
50 | Nc1nc(OCC2=CCCC2)c2nc[nH]c2n1 |  | IC50 [2]: 31000 nM
51 | CNc1ncc2ncnc(Nc3cccc(Br)c3)c2n1 | 0.776 nM | 
52 | O=C(O)CCCNc1c(Br)cccc1Nc1ncnc2ccncc12 | 0.282 nM | 

Row | SMILES | IC50 [1] | other results
53 | Brc1cccc(Nc2ncnc3ccncc23)c1 | 35.5 nM | 
54 | CCN(CC)c1ccc2c(c1)nc(Nc1c(C)cccc1Cl)c1cncn12 |  | IC50 (cells): 1700 nM
55 | COc1ccc2ncnc(Nc3ccccc3)c2c1 [listing 2 of 2 here] | 120 nM | 
56 | Cc1cccc(Cl)c1Nc1nc2ccc(N3CCCN(C)CC3)cc2n2cncc12 |  | IC50 (cells): 540 nM
57 | Cc1cccc(Nc2ncnc3ccncc23)c1NCCCCN(C)C | 5.5 nM | 
58 | CN(C)c1ccc(Nc2ncnc3ccncc23)c(N)c1 | 4900 nM | 
59 | Clc1cccc(Nc2ncnc3ccccc23)c1 | 23.4 nM | 
60 | COc1cc2c(cc1OCCN1CCOCC1)nc(Nc1c(C)cccc1Cl)c1cncn12 |  | IC50 (cells): 470 nM
61 | Cc1cccc(Cl)c1Nc1nc2ccc(N3CC(C)NC(C)C3)cc2n2cncc12 (stereo not given) |  | IC50 (cells): 340 nM
62 | CNc1cc2ncnc(Nc3cccc(Br)c3)c2cc1[N+](=O)[O-] | 69.2 nM | 
63 | Nc1ccccc1Nc1ncnc2cc(Br)ncc12 | 245 nM | 
64 | CC(=O)Nc1c(Br)cccc1Nc1ncnc2ccncc12 | 29.5 nM | 
65 | CC(=O)Nc1ccc2c(Nc3cccc(Br)c3)ncnc2c1 | 40.7 nM | 
66 | CN1CCN(CCCNc2c(Br)cccc2Nc2ncnc3ccncc23)CC1 | 5.01 nM | 
67 | CCN1CCN(c2ccc3nc(Nc4c(C)cccc4Cl)c4cncn4c3c2)CC1 |  | IC50 (cells): 270 nM
68 | Nc1ccc2ncnc(Nc3cccc(Br)c3)c2n1 | 7.76 nM | 
69 | Cc1cccc(Cl)c1Nc1nc2cc3c(cc2n2cncc12)OCCO3 |  | IC50 (cells): 2200 nM
70 | CNc1ccc2ncnc(Nc3cccc(Br)c3)c2n1 | 3.16 nM | 
71 | Cc1cccc(Cl)c1Nc1nc2cc(N3CCNCC3)ccc2n2cncc12 |  | IC50 (cells): 1000 nM
72 | COc1cc2nc(Nc3c(C)cccc3Cl)c3cncn3c2cc1OC |  | IC50 (cells): 670 nM
73 | O=[N+]([O-])c1ccc2ncnc(Nc3cccc(Br)c3)c2c1 | 912 nM | 
74 | Brc1cccc(Nc2ncnc3cnc(NCCn4ccnc4)nc23)c1 | 2.34 nM | 
75 | Brc1cccc(Nc2ncnc3ccccc23)c1 | 27.5 nM | 
76 | Cc1cccc(Nc2ncnc3cnc(NCCN4CCOCC4)nc23)c1 | 2.34 nM | 
77 | COc1ccc(CNc2cc3c(Nc4cccc(Br)c4)ncnc3cn2)cc1 | 2.34 nM | 
78 | CC(=O)Nc1ccc2nc(Nc3c(C)cccc3Cl)c3cncn3c2c1 |  | IC50 (cells): 1400 nM

Row | SMILES | IC50 [1] | other results
79 | Cc1cccc(Cl)c1Nc1nc2cc(N3CC(C)NC(C)C3)ccc2n2cncc12 (stereo not given) |  | IC50 (cells): 570 nM
80 | Cc1cccc(Cl)c1Nc1nc2ccc(NCCCN3CCOCC3)cc2n2cncc12 |  | IC50 (cells): 760 nM
81 | CCN(CC)c1ccc2nc(Nc3c(C)cccc3Cl)c3cncn3c2c1 |  | IC50 (cells): 2600 nM
82 | O=C(O)CCNc1c(Br)cccc1Nc1ncnc2ccncc12 | 0.617 nM | 
83 | Nc1c(Br)cccc1Nc1ncnc2ccncc12 | 10 nM | 
84 | OCC(O)CNc1c(Br)cccc1Nc1ncnc2ccncc12 (stereo not given) | 0.933 nM | 
85 | Brc1cccc(Nc2ncnc3ccncc23)c1NCCCCN1CCOCC1 | 5.5 nM | 
86 | COc1ccc(Nc2ncnc3ccncc23)c(N)c1 | 676 nM | 
87 | CN(C)CCCCCNc1c(Br)cccc1Nc1ncnc2ccncc12 | 8.51 nM | 
88 | COc1cc2c(cc1NCCN(C)C)nc(Nc1c(F)cccc1Cl)c1cncn12 |  | IC50 (cells): 240 nM
89 | OCN(CO)c1c(Br)cccc1Nc1ncnc2ccncc12 | 14.1 nM | 
90 | Fc1cc2c(Nc3cccc(Br)c3)ncnc2cn1 | 126 nM | 
91 | Clc1cc2c(Nc3cccc(Br)c3)ncnc2cn1 | 40.7 nM | 
92 | CN(C)c1ccc2c(Nc3cccc(Br)c3)ncnc2c1 | 11.2 nM | 
93 | COc1cc2c(Nc3cccc(Br)c3)ncnc2cn1 | 2.63 nM | 
94 | Nc1c(F)cccc1Nc1ncnc2ccncc12 | 851 nM | 
95 | CCNc1ccc2nc(Nc3c(C)cccc3Cl)c3cncn3c2c1 |  | IC50 (cells): 2200 nM
96 | Cc1cccc(Cl)c1Nc1nc2cc(N3CCN(C)CC3)ccc2n2cncc12 |  | IC50 (cells): 720 nM
97 | Cc1cccc(Cl)c1Nc1nc2cc(NCCN(C)C)ccc2n2cncc12 |  | IC50 (cells): 520 nM
98 | Cc1cccc(Cl)c1Nc1nc2ccc(N3CCN(C)CC3)cc2n2cncc12 |  | IC50 (cells): 240 nM
99 | OCCN(CCO)CCCNc1c(Br)cccc1Nc1ncnc2ccncc12 | 1.2 nM | 
100 | OCCN(CCO)CCNc1c(Br)cccc1Nc1ncnc2ccncc12 | 9.33 nM | 
101 | COc1cccc(Nc2ncnc3ccncc23)c1N | 132 nM | 
102 | CN(C)c1ccc2ncnc(Nc3cccc(Br)c3)c2n1 | 9.77 nM | 
103 | COc1c(Br)cccc1Nc1ncnc2ccncc12 | 39.8 nM | 
104 | CN(C)CCN(C)c1c(Br)cccc1Nc1ncnc2ccncc12 | 40.7 nM | 

Row | SMILES | IC50 [1] | other results
105 | COc1cc2nc(Nc3c(C)cccc3C)c3cncn3c2cc1OC |  | IC50 (cells): 1100 nM
106 | COc1cc2ncnc(Nc3ccccc3N)c2cn1 | 3720 nM | 
107 | Ic1cccc(Nc2ncnc3ccccc23)c1 | 81.3 nM | 
108 | Cc1cccc(Cl)c1Nc1nc2ccc(NCCN3CCOCC3)cc2n2cncc12 |  | IC50 (cells): 1300 nM
109 | O=[N+]([O-])c1ccc2c(Nc3cccc(I)c3)ncnc2c1 | 550 nM | 
110 | Nc1ccccc1Nc1ncnc2ccncc12 | 251 nM | 
111 | Oc1ccc2c(Nc3cccc(Br)c3)ncnc2c1 | 4.79 nM | 
112 | COc1ccc2ncnc(Nc3cccc(Br)c3)c2n1 | 4.37 nM | 
113 | Nc1cc(C(F)(F)F)ccc1Nc1ncnc2ccncc12 | 4790 nM | 
114 | Nc1cc2c(Nc3cccc(Br)c3)ncnc2cc1Cl | 6.61 nM | 
115 | COc1cc2ncnc(Nc3cccc(C(F)(F)F)c3)c2cc1OC | 0.245 nM | 
116 | Nc1c(Nc2ncnc3ccncc23)cccc1[N+](=O)[O-] | 40.7 nM | 
117 | Cc1cccc(Nc2ncnc3cnc(N)nc23)c1 | 17.4 nM | 
118 | Cc1cccc(Cl)c1Nc1nc2ccc(N3CCN(C=O)CC3)cc2n2cncc12 |  | IC50 (cells): 530 nM
119 | OCCN(CCO)c1c(Br)cccc1Nc1ncnc2ccncc12 | 12 nM | 
120 | Brc1cccc(Nc2ncnc3ccncc23)c1NCCCN1CCOCC1 | 1.91 nM | 
121 | COc1cc2c(cc1NCCN(C)C)nc(Nc1c(C)cccc1Cl)c1cncn12 |  | IC50 (cells): 190 nM
122 | Cc1cccc(Cl)c1Nc1nc2ccc(N3CCOCC3)cc2n2cncc12 |  | IC50 (cells): 780 nM
123 | CNc1ncc2ncnc(Nc3ccccc3)c2n1 | 13.2 nM | 
124 | CN(C)c1ccc2c(Nc3cccc(Br)c3)ncnc2n1 | 331 nM | 
125 | Brc1cccc(Nc2ncnc3ccncc23)c1NCCc1c[nH]cn1 | 0.912 nM | 
126 | Brc1cccc(Nc2ncnc3cccnc23)c1 | 34.7 nM | 
127 | CN(C)CCCNc1c(Br)cccc1Nc1ncnc2ccncc12 | 8.91 nM | 
128 | OCCNc1c(Br)cccc1Nc1ncnc2ccncc12 | 0.245 nM | 
129 | COc1cc2ncnc(Nc3ccccc3)c2cc1OC | 29.5 nM | 
130 | CN(CC(=O)O)c1c(Br)cccc1Nc1ncnc2ccncc12 | 16.2 nM | 
